The values that follow come from ChEMBL document CHEMBL5528048, “Discovery of Novel Potent and Fast BTK PROTACs for the Treatment of Osteoclasts-Related Inflammatory Diseases” (J Med Chem, 2024).

In data set [1] the target is Tyrosine-protein kinase BTK (Homo sapiens, UniProt Q06187). The data set is described as follows: Inhibition of BTK (unknown origin) measured after 60 mins incubation by microtiter-plate reader.
The target of data set [2] is T1, Protein cereblon/Tyrosine-protein kinase BTK (Homo sapiens, UniProt Q06187+Q96SW2). Briefly: Binding affinity to BTK/CRBN (unknown origin) assessed as ternary complex formation by measuring peak HTRF ratio at wavelength 665/620 nm measured after 60 mins incubation by HTRF assay. In general terms: Time-resolved FRET reads energy transfer from a long-lived donor to a nearby acceptor.
T1 sequence (Q06187 2-659 limits assumed): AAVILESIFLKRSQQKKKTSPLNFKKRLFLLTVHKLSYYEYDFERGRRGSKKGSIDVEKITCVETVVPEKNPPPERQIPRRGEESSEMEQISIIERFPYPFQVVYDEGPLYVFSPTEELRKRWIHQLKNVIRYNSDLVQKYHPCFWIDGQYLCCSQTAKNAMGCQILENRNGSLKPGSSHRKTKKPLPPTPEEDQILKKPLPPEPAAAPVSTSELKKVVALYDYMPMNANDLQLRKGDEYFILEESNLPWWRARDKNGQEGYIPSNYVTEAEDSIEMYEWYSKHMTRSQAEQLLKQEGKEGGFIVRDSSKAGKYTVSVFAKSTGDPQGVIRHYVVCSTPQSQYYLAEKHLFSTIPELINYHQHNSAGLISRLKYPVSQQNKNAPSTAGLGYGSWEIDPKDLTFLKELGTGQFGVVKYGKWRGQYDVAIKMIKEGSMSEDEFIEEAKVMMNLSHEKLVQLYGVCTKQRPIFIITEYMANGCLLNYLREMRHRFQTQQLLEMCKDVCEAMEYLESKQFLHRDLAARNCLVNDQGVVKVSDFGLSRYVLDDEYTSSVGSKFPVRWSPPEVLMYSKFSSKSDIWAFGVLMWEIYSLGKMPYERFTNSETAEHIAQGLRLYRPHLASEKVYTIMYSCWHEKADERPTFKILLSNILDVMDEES
T1 sequence (Q96SW2 whole entry partner): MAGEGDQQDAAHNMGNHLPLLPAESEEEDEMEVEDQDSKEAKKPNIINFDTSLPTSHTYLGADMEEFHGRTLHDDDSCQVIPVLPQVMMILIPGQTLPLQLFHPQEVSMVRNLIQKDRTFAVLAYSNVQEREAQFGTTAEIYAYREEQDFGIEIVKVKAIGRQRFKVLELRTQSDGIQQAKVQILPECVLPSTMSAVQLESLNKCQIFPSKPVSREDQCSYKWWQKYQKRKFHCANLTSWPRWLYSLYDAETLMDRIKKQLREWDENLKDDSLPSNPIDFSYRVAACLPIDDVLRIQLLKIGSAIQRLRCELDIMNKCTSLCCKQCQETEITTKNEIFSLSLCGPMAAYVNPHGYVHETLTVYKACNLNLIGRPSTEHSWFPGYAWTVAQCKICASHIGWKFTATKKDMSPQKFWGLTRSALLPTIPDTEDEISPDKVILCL

For data set [3], the target named is T1, Protein cereblon/Tyrosine-protein kinase BTK. The data set is described as follows: PROTAC activity at BTK/CRBN in human MINO cells assessed as BTK protein degradation pretreated with 2 uM ibrutinib followed by 1 hr treated at 20 nM measured after 48 hrs by Western blotting analysis. The class given is cell-based. The settings on record: dose […]. In general terms: Immunoblotting shows a protein as a band on a membrane.

Data set [4] has the same target. Briefly: PROTAC activity at BTK/CRBN in human MINO cells assessed as BTK protein degradation pretreated with 2 uM pomalidomide followed by 1 hr treated at 20 nM measured after 48 hrs by Western blotting analysis. The conditions noted are these: dose […]. It is filed as cell-based.
For data set [5] the target is unchanged. The data set is described as follows: PROTAC activity at BTK/CRBN in human MINO cells assessed as BTK protein degradation pretreated with 2 uM MG132 followed by 1 hr treated at 20 nM measured after 48 hrs by Western blotting analysis. It is filed as cell-based. The settings on record: dose […].
Data set [6] deals with T2, Protein cereblon/Tyrosine-protein kinase BTK (Mus musculus) (UniProt P35991+Q8C7D2). Briefly: PROTAC activity at BTK/CRBN in mCSF/RANKL-stimulated C57BL/6J mouse BMDM assessed as reduction in phosphorylated PLCgamma2 protein level at 25 to 100 nM followed by stimulated with mCSF/RANKL measured after 2 hrs by Western blotting analysis. The settings on record: dose 25-100 nM. It is filed as cell-based.
T2 sequence (P35991 whole entry, looked up): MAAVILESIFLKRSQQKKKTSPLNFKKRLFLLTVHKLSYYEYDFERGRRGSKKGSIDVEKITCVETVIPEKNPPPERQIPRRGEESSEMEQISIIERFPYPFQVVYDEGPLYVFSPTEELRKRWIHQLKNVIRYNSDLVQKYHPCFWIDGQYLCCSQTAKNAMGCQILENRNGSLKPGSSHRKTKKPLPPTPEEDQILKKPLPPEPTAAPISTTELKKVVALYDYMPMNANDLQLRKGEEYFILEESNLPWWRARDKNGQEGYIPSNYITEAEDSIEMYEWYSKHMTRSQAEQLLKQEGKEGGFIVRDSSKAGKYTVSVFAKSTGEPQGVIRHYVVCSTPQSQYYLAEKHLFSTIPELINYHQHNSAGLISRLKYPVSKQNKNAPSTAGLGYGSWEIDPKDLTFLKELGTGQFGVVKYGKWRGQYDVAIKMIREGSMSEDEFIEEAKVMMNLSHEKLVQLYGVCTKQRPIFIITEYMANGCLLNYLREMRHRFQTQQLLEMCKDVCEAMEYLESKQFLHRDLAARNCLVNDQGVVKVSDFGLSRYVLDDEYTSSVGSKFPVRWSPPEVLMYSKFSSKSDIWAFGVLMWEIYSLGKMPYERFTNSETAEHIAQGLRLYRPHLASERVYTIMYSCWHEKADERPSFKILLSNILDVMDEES
T2 sequence (Q8C7D2 whole entry, looked up): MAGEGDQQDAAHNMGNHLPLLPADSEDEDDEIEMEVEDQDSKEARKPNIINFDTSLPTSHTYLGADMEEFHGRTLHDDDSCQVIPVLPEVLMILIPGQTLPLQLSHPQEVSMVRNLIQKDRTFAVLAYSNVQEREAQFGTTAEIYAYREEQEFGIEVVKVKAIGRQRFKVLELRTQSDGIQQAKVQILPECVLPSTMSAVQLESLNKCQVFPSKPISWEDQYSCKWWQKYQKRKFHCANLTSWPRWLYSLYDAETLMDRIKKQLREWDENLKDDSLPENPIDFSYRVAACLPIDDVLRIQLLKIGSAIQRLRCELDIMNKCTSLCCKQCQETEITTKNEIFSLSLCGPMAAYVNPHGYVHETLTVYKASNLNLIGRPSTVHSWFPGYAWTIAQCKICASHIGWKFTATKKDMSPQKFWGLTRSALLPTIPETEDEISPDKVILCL

The target in data set [7] is T2, Protein cereblon/Tyrosine-protein kinase BTK (Mus musculus). The data set is described as follows: PROTAC activity at BTK/CRBN in mCSF/RANKL-stimulated C57BL/6J mouse BMDM assessed as reduction in phosphorylated ERK protein level at 25 to 100 nM followed by stimulated with mCSF/RANKL measured after 2 hrs by Western blotting analysis. The class given is cell-based. The conditions noted are these: dose 25-100 nM.

The test system of data set [8] is BMMC. Briefly: Inhibition of RANKKL-induced upregulation of osteoclast related genes in C57BL/6J mouse BMM cells assessed as reduction in mCSF/RANKL-stimulated TRAP gene expression at 25 to 100 nM followed by stimulated with mCSF/RANKL measured after 2 hrs by qPCR analysis. The class given is functional, cell-based. The settings on record: dose 25-100 nM.
Data set [9] relates to BMMC. Briefly: Inhibition of RANKKL-induced upregulation of osteoclast related genes in C57BL/6J mouse BMM cells assessed as reduction in mCSF/RANKL-stimulated NFATc1 gene expression at 25 to 100 nM followed by stimulated with mCSF/RANKL measured after 2 hrs by qPCR analysis. The class given is functional, cell-based. The conditions noted are these: dose 25-100 nM. On the technique in general: In qPCR the cycle at which signal appears reflects the starting amount.

The target of data set [10] is T2, Protein cereblon/Tyrosine-protein kinase BTK (Mus musculus). The data set is described as follows: PROTAC activity at BTK/CRBN in C57BL/6J mouse BMM cells assessed as reduction in mCSF/RANKL-stimulated c-Fos protein expression at 25 to 100 nM followed by stimulated with mCSF/RANKL measured after 2 hrs by Western blot analysis. The class given is cell-based. The conditions noted are these: BMDM, dose 25-100 nM.

In data set [11] the test system is Mus musculus. Briefly: Antiosteoclastogenic effects in LPS-soaked ligature-induced C57BL/6J mouse periodontal disease model assessed as reduction in periodontal alveolar bone loss by measuring distance between the cemento-enamel junction (CEJ) at 10 to 30 mg/kg, ip treated on day 0, 1,4, 7 and measured on day 10 by Micro-CT 3D scan. The settings on record: dose 10-30 mg/kg, time 7.0 day. It is filed as functional, organism-based.

Data set [12] has as its system Mus musculus. The data set is described as follows: Antiosteoclastogenic effects in LPS-soaked ligature-induced C57BL/6J mouse periodontal disease model assessed as reduction in periodontal alveolar bone loss by measuring distance between the alveolar bone crest (ABC) at 10 to 30 mg/kg, ip treated on day 0, 1,4, 7 and measured on day 10 by Micro-CT 3D scan. It is filed as functional, organism-based. The conditions noted are these: dose 10-30 mg/kg, time 7.0 day.

Data set [13] deals with Mus musculus. Briefly: Antiosteoclastogenic effects in LPS-soaked ligature-induced C57BL/6J mouse periodontal disease model assessed as reduction in periodontal alveolar bone loss by measuring increase in bone volume per tissue volume (BV/TV%) at 10 to 30 mg/kg, ip treated on day 0, 1,4, 7 and measured on day 10 by Micro-CT 3D scan. It is filed as functional, organism-based. The settings on record: dose 10-30 mg/kg, time 7.0 day.

Data set [14] is described as follows: Cmax in Sprague-Dawley rat at 4 mg/kg, ip measured upto 48 hrs. The conditions noted are these: in vivo. It is filed as ADME, organism-based.
A short description of data set [15]: AUC (0 to infinity) in Sprague-Dawley rat at 2 mg/kg, iv measured upto 48 hrs. It is filed as ADME, organism-based. The conditions noted are these: in vivo.
Data set [16] can be described thus: Apparent volume of distribution in Sprague-Dawley rat at 2 mg/kg, iv measured upto 48 hrs. The class given is ADME, organism-based. The conditions noted are these: in vivo, read-out: Vz.
Data set [17] in a line: Clearance in Sprague-Dawley rat at 2mg/kg, iv measured upto 48 hrs. It is filed as ADME, organism-based. The conditions noted are these: in vivo.

Structures are written as SMILES. The source made the active and inactive calls. The rule behind the calls is not given here.

Tyrosine-protein kinase BTK, sequence (Q06187 whole entry): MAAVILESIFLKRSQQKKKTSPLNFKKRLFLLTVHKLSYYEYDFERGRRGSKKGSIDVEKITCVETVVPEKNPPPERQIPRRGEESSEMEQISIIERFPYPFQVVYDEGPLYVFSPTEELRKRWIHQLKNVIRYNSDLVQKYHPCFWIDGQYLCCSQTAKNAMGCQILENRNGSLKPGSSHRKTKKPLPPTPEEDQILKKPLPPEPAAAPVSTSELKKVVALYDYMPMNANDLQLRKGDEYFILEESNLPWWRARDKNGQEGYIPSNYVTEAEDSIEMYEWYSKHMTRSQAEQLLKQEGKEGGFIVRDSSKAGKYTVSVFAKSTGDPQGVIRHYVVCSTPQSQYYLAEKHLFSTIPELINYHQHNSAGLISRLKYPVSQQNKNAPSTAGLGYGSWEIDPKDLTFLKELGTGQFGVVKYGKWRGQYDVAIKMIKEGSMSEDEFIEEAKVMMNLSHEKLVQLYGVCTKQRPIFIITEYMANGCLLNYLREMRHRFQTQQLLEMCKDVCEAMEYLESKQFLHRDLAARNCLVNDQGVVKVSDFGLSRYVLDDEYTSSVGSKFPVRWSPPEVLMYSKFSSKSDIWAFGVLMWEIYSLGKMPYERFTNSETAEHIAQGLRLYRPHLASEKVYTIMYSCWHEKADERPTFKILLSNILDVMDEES

In general, IC50 refers to the concentration at which inhibition is half-maximal. Higher therefore signals a need for much substance. For orientation: Cmax means the peak of the concentration-time curve. A word on the AUC(0-inf): it is the area under the concentration-time curve extrapolated to infinity. A higher AUC(0-inf) goes with more exposure. One may read the clearance as a measure of how efficiently the substance is removed, as volume per time. As to `Cc1cc(-c2nc(Nc3cnn(C4CCN(CC5CCN(c6ccc7c(c6)C(=O)N(C6CCC(=O)NC6=O)C7=O)CC5)CC4)c3)ncc2F)ccc1CNC(=O)c1cn(C(C)(C)C)nn1` (configuration not stated), in [1], the concentration for half-maximal inhibition (IC50) is 299 nM. For the same molecule, in data set [2], the Ratio worked out at 8.59. Besides, the result in data set [3], in [4] and in data set [5] was inactive. For the same molecule, the result in data set [6], in data set [7], in [9], in data set [10], in data set [11] and in data set [12] was Active. Also, the result in [13] was Active. The inhibition result in data set [8] is “Active”. In data set [14], this molecule displayed a maximum concentration (Cmax) of 184 ng/mL. The molecule also registered an area under the curve AUC(0-inf) in data set [15] of 2350 ng·h/mL. For the same molecule, the Vd in data set [16] is 9.29 L/kg. In addition, in data set [17], the clearance was 15.2 mL/min/kg.
